Measured values reported in patent publication US20100010078A1, “METHODS OF TREATING ANDROGEN DEPENDENT PROSTATE CANCER BY ADMINISTERING AN ACTIVE PHARMACEUTICAL INGREDIENT BEING FISETIN, 3,3',4',7-TETRAHYDROXYFLAVONE OR A DERIVATIVE THEREOF, IN AN ORAL, TRANSDERMAL OR TOPICAL DOSAGE FORM” (priority 2008, published 2010).
Like-named read-outs stand apart in the source and are kept apart here.

Experiments:
[1] = system: cyclin D1, cyclin D2 and cyclin E; test: Western blot, cyclins in LNCaP cells; assay type: cell-based, human; settings: fisetin 10-60 μM, 48 h
Experimental: (§1) Protein extraction and western blotting. Following the treatment of LNCaP cells with fisetin (10-60 μM; 48 h), the media was aspirated, the cells were washed with cold PBS (pH 7.4), and ice-cold lysis buffer (50 mM Tris-HCl, 150 mM NaCl, 1 mM EGTA, 1 mM EDTA, 20 mM NaF, 100 mM Na3VO4, 0.5% NP-40, 1% Triton X-100, 1 mM PMSF (pH 7.4)) with freshly added protease inhibitor cocktail (Protease Inhibitor Cocktail Set III, Calbiochem, La Jolla, Calif.) over ice for 30 min. The cells were scraped and the lysate was collected in a microfuge tube and passed through a needle to break up the cell aggregates. […]
(§2) For western blotting, 30-50 μg protein was resolved over 8-12% polyacrylamide gels and transferred to a nitrocellulose membrane. The blot was blocked in blocking buffer (5% nonfat dry milk/1% Tween 20; in 20 mM TBS, pH 7.6) for 1 hr at room temperature, incubated with appropriate monoclonal or polyclonal primary antibody in blocking buffer for 1.5 h to overnight at 4° C., followed by incubation with anti-mouse or anti-rabbit secondary antibody horseradish peroxidase conjugate obtained from Amersham Life Science Inc. and detected by chemiluminescence and autoradiography using XAR-5 film obtained from Eastman Kodak Co. (Rochester, N.Y., USA). […]

LNCaP cells [2] = test: DNA cell cycle analysis by flow cytometry; assay type: cell-based, human; settings: 48 h
Experimental: DNA Cell Cycle Analysis. The LNCaP cells (50-60% confluent) were treated with fisetin (10-60 μM; 48 h) in complete medium. The cells were trypsinized thereafter, washed twice with cold PBS and centrifuged. The cell pellet was resuspended in 50 μl cold PBS to which cold methanol (450 μL) was added and the cells were incubated for 1 h at 4° C. The cells were centrifuged at 1,100 rpm for 5 minutes, pellet washed twice with cold PBS, suspended in 500 μl PBS and incubated with 5 μl RNase (20 μg/ml final concentration) for 30 min. The cells were chilled over ice for 10 min and incubated with propidium iodide (50 μg/ml final concentration) for 1 h for analysis by flow cytometry. Flow cytometry was performed with a FACScan (Becton Dickinson). A minimum of 10,000 cells per sample were collected and the DNA histograms were further analyzed by using ModiFitLT software (Verily Software House, Topsham, Me.) for cell cycle analysis.

LNCaP cells [3] = test: Apoptosis assessment by annexin-V staining; assay type: cell-based, human; settings: fisetin 10-60 μM, 48 h
Experimental: Apoptosis assessment by annexin-V staining. The Annexin-V-Fluos staining kit was used for the detection of apoptotic cells according to vendor's protocol. This kit uses a staining protocol in which the apoptotic cells are stained with annexin-V (green fluorescence). The LNCaP cells were grown to 70% confluency and treated with fisetin (10-60 μM) for 48 h. The fluorescence was measured by a Zeiss 410 confocal microscope (Thornwood, N.Y.). Confocal images of green annexin-FITC fluorescence were collected using 488 nm excitation light from an argon/krypton laser, a 560 nm dichroic mirror and a 514-540 nm bandpass barrier filter.

PrEC cells = test: MTT cell viability assay, normal prostate epithelial (PrEC) cells; assay type: cell-based, human; settings: fisetin 10-60 μM
Experimental: (§3) obtained from ATCC (Manassas, Va.). LNCaP cells were cultured in Dulbecco's Modified Eagle's medium supplemented with 5% heat-inactivated fetal bovine serum and 1% penicillin/streptomycin (P-S). CWR22Ru1 and PC-3 cells were grown in RPMI 1640 (Invitrogen) supplemented with 10% fetal bovine serum and 1% P-S. Human prostate epithelial cells (PrEC) were obtained from Cambrex Bioscience (Walkersville, Md.) and grown in prostate epithelial basal cell medium (Cambrex Bioscience) according to the manufacturer's instructions. The cells were maintained under standard cell culture conditions at 37° C. and 5% CO2 in a humid environment. Fisetin dissolved in dimethyl sulfoxide (final concentration 0.1% v/v) was used for the treatment of cells. The cells (60-70% confluent) were treated with fisetin (10-60 μM) for 24 and 48 h in complete growth medium.
Cell viability. The effect of fisetin on the viability of cells was determined by 3-[4,5-dimethylthiazol-2-yl]-2,5-diphenyl tetrazoliumbromide assay. […] The absorbance was recorded on a microplate reader at the wavelength of 540 nm. The effect of fisetin on growth inhibition was assessed as percent cell viability where DMSO-treated cells were taken as 100% viable. […]

CWR22Ru1 cells = test: MTT cell viability assay, CWR22Ru1 cells; assay type: cell-based; settings: Homo sapiens, read-out: decrease in cell viability; for cytotoxicity at 10 µM: CWR22Ru1, fisetin 10 μM; for cytotoxicity at 20 µM: CWR22Ru1, fisetin 20 μM; for cytotoxicity at 40 µM: CWR22Ru1, fisetin 40 μM; for cytotoxicity at 60 µM: CWR22Ru1, fisetin 60 μM
Experimental: as §3
(§4) Cell viability. The effect of fisetin on the viability of cells was determined by 3-[4,5-dimethylthiazol-2-yl]-2,5-diphenyl tetrazoliumbromide assay. LNCaP, CWR22Ru1, PC-3 and PrEC cells were plated at 1×10^4 cells per well in 200 μl of complete culture medium containing 10-60 μM concentrations of fisetin in 96-well microtiter plates for 24 and 48 h. After incubation for specified times at 37° C. in a humidified incubator, 3-[4,5-dimethylthiazol-2-yl]-2,5-diphenyl tetrazoliumbromide (5 mg/ml in PBS) was added to each well and incubated for 2 h, after which the plate was centrifuged at 1,800×g for 5 min at 4° C. The absorbance was recorded on a microplate reader at the wavelength of 540 nm. The effect of fisetin on growth inhibition was assessed as percent cell viability where DMSO-treated cells were taken as 100% viable. DMSO at the concentrations used was without any effect on cell viability.

WAF1/p21 and KIP1/p27 = test: Western blot, WAF1/p21 and KIP1/p27 in LNCaP cells; assay type: cell-based, human; settings: fisetin 10-60 μM, 48 h
Experimental: as §1, §2

LNCaP cells [4] = test: MTT cell viability assay, LNCaP cells; assay type: cell-based; settings: Homo sapiens, read-out: decrease in cell viability; for cytotoxicity at 10 µM: fisetin 10 μM; for cytotoxicity at 20 µM: fisetin 20 μM; for cytotoxicity at 40 µM: fisetin 40 μM; for cytotoxicity at 60 µM: fisetin 60 μM
Experimental: as §3, §4

caspase-3, -8 and -9 = test: Western blot, active caspase-3, -8 and -9 in LNCaP cells; assay type: cell-based, human; settings: fisetin 10-60 μM, 48 h
Experimental: as §1, §2

[5] = system: PI3K (p85), Akt (Ser473 and Thr308); test: Western blot, PI3K (p85) and phosphorylation of Akt in LNCaP cells; assay type: cell-based, human; settings: fisetin 10-60 μM, 48 h
Experimental: as §1, §2

O=c1c(O)c(-c2ccc(O)c(O)c2)oc2cc(O)ccc12 [fisetin, 3,3′,4′,7-tetrahydroxyflavone]
protein expression of cyclins D1, D2 and E [1]: dose-dependent decrease | G1 phase cell cycle distribution (LNCaP cells [2]; fisetin 10 μM): 61% | G1 phase cell cycle distribution (LNCaP cells [2]; fisetin 20 μM): 63% | G1 phase cell cycle distribution (LNCaP cells [2]; fisetin 40 μM): 67% | G1 phase cell cycle distribution (LNCaP cells [2]; fisetin 60 μM): 69% | apoptotic cells by annexin-V staining (LNCaP cells [3]): increased | effect on cell viability (PrEC cells; 24 h): minimal effect | effect on cell viability (PrEC cells; 48 h): minimal effect | cytotoxicity at 10 µM (CWR22Ru1 cells; 24 h): 12% | cytotoxicity at 10 µM (CWR22Ru1 cells; 48 h): 18% | cytotoxicity at 20 µM (CWR22Ru1 cells; 24 h): 26% | cytotoxicity at 20 µM (CWR22Ru1 cells; 48 h): 34% | cytotoxicity at 40 µM (CWR22Ru1 cells; 24 h): 38% | cytotoxicity at 40 µM (CWR22Ru1 cells; 48 h): 44% | cytotoxicity at 60 µM (CWR22Ru1 cells; 24 h): 52% | cytotoxicity at 60 µM (CWR22Ru1 cells; 48 h): 55% | protein expression of WAF1/p21 and KIP1/p27 (WAF1/p21 and KIP1/p27): induction | cytotoxicity at 10 µM (LNCaP cells [4]; 24 h): 15% | cytotoxicity at 10 µM (LNCaP cells [4]; 48 h): 19% | cytotoxicity at 20 µM (LNCaP cells [4]; 24 h): 33% | cytotoxicity at 20 µM (LNCaP cells [4]; 48 h): 40% | cytotoxicity at 40 µM (LNCaP cells [4]; 24 h): 45% | cytotoxicity at 40 µM (LNCaP cells [4]; 48 h): 49% | cytotoxicity at 60 µM (LNCaP cells [4]; 24 h): 57% | cytotoxicity at 60 µM (LNCaP cells [4]; 48 h): 62% | activation of caspase-3, -8 and -9 (caspase-3, -8 and -9): dose-dependent increase | expression of regulatory (p85) subunit of PI3K [5]: inhibition | phosphorylation of Akt at Ser473 and Thr308 [5]: inhibited
